Test: Screening of lyoprotectants for stabilization of nanoparticles on lyophilization (particle size before lyophilization and after reconstitution)
Format: physicochemical
Settings: single lyoprotectant, amounts 5-20% (FIG. 15)
From the text: FIG. 15 compares particle size as a function of lyoprotectant and lyoprotectant amount for representative phospholipid-coated therapeutic agent (paclitaxel) nanoparticles of the invention, PC-coated paclitaxel nanoparticle manufactured by thin film-hydration method (LM-101), before lyophilization and after reconstitution.

OC[C@H]1O[C@H](O[C@H]2O[C@H](CO)[C@@H](O)[C@H](O)[C@H]2O)[C@H](O)[C@@H](O)[C@@H]1O [Trehalose]
stabilization of particles on lyophilization (lyoprotectant): best in stabilizing the particles on lyophilization
